This is an account of results in patent US11780821B2, “Inhibitors of fibroblast activation protein” (Praxis Biotech LLC, priority 2017, dated 2023).

Where two headings read alike, the source gives them in different places.

What all share (assay type): biochemical
The target of test [1] is T1, recombinant human FAPα (rhFAPα) (Homo sapiens, UniProt Q12884).
T1 construct: purchased R&S system (so in the source)
T1 sequence (Q12884 1-760): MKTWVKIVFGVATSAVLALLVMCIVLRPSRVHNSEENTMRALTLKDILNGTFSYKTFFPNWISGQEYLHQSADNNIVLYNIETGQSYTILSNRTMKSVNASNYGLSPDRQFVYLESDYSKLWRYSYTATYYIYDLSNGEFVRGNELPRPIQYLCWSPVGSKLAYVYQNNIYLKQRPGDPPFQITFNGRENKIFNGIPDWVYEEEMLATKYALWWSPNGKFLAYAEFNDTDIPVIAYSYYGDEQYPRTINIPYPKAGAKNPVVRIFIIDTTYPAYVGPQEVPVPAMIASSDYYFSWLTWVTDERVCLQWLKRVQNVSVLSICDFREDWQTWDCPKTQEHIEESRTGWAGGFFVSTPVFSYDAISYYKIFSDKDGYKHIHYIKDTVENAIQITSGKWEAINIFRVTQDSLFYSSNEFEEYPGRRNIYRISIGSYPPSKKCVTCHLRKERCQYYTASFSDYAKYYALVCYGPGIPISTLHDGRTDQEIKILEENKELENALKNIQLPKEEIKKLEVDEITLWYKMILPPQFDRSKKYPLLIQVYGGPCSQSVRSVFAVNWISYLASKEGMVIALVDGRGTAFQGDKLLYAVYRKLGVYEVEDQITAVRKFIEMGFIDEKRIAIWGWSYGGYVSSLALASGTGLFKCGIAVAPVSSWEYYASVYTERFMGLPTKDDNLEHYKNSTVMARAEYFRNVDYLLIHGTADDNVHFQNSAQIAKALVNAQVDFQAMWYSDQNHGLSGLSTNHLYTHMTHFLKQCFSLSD
The experiment in a line: FAPα enzymatic exopeptidase (dipeptidase) activity assay. The following applies: for inhibition at 1 µM: read-out: rhFAPα (% exo inh @ 1 μM); for IC50: exopeptidase, read-out: rhFAPα (exo IC50).

Test [2] addresses T2, recombinant human DPP9 (rhDPP9) (Homo sapiens, UniProt Q86TI2).
T2 construct: purchased R&S system (so in the source)
Kind of test: DPP9 enzymatic activity assay. The following applies: H-Gly-Pro-AMC substrate. As for the experimental part:
(§1) 7-Amino-4-Methylcoumarin (AMC) release was detected by measuring fluorescence at Ex/Em 380/460 nm using a Multifunction Microplate Reader (Synergy 4, Biotek). All measurements were carried out in triplicate.

Test [3] addresses T3, recombinant human DPPIV (rhDPPIV) (Homo sapiens, UniProt P27487).
T3 construct: purchased R&S system (so in the source)
Kind of test: DPPIV enzymatic activity assay. The following applies: H-Gly-Pro-pNA substrate.

Test [4] addresses T4, recombinant human PREP (rhPREP) (Homo sapiens, UniProt P48147).
T4 sequence (P48147 1-710): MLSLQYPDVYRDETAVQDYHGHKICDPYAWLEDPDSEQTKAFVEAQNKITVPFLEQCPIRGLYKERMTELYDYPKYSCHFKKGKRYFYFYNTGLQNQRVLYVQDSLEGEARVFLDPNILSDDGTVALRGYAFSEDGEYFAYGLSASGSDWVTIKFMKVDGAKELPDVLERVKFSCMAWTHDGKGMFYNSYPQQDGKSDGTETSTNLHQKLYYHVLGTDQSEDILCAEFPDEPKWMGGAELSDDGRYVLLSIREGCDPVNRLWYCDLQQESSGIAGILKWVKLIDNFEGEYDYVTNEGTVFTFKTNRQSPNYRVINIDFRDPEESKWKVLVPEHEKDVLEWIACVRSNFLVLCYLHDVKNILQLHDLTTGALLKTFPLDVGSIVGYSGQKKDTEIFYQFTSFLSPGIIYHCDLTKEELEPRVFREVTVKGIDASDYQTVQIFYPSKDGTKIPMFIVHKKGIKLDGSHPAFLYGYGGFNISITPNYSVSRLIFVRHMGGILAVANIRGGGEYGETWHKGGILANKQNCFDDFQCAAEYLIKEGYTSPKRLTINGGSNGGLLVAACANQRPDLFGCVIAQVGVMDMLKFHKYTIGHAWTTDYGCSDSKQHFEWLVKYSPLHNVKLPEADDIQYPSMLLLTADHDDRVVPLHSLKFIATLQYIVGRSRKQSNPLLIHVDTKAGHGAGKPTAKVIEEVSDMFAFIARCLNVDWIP
The experiment in a line: PREP enzymatic activity assay. The note with it: Z-Gly-Pro-AMC substrate. How it is done:
as §1

Where [5] appears, read: 1 μM test compound, Z-Gly-Pro-AMC substrate.

T3 sequence (P27487 whole entry): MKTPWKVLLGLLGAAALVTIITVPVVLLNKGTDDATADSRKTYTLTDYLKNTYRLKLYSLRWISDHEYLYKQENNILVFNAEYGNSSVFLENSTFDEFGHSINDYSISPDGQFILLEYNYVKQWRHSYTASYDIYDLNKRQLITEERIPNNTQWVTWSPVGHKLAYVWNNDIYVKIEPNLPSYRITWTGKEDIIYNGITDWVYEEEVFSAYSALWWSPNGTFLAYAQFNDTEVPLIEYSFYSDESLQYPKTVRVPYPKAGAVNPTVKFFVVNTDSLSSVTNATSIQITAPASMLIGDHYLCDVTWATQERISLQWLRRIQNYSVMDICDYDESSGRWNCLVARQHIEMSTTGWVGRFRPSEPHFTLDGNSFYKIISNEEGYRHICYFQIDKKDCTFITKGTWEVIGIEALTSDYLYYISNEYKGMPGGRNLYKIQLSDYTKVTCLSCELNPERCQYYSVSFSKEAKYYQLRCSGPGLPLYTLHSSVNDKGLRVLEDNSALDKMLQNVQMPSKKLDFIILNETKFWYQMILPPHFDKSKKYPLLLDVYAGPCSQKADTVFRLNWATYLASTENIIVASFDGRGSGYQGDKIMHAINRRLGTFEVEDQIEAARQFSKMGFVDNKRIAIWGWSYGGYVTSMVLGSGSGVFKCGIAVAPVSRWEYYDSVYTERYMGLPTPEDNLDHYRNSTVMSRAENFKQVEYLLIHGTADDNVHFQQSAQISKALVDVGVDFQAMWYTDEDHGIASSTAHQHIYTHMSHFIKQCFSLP
T2 sequence (Q86TI2 whole entry): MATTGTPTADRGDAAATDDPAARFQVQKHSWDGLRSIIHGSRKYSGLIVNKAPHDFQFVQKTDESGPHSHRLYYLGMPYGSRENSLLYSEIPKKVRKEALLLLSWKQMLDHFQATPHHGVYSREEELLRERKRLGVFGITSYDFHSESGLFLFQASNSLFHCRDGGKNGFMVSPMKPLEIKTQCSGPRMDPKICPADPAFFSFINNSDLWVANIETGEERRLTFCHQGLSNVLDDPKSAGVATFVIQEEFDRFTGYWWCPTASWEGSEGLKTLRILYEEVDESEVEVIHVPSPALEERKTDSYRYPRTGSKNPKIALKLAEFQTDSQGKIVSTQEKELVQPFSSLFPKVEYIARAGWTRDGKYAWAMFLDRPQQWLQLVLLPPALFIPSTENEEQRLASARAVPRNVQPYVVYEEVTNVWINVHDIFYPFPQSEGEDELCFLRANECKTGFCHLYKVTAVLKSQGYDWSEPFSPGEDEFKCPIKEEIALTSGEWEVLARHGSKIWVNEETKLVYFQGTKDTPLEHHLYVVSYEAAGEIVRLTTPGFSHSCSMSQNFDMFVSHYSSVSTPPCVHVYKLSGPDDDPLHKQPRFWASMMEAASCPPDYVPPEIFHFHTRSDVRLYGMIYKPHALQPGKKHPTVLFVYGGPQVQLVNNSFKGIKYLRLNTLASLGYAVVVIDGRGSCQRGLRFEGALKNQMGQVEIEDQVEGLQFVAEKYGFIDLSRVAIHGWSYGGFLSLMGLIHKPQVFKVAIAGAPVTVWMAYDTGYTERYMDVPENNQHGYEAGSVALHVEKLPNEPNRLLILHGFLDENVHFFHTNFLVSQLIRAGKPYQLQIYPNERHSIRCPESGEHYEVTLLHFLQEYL

For the compound `N#C[C@@H]1CC(F)(F)CN1C(=O)CNC(=O)c1ccncc1Oc1ccc(F)cc1` [compound 35], in test [1] (setting [5]), the inhibition at 1 µM is above 50%. For the same compound, the half-inhibitory concentration (IC50) in test [1] (Table 2, Z-Gly-Pro-AMC) is below 1000 nM; in test [2] it was above 10 µM; in test [3], above 10 µM; in test [4] it was above 10 µM.
As to `N#C[C@@H]1CC(F)(F)CN1C(=O)CNC(=O)c1ccncc1Sc1ccccc1` [Compound 115, (S)—N-(2-(2-cyano-4,4-difluoropyrrolidin-1-yl)-2-oxoethyl)-3-(phenylthio)isonicotinamide], in test [1] (setting [5]), the inhibition at 1 µM was above 50%. Besides, the IC50 is below 1000 nM in test [1] (Table 2, Z-Gly-Pro-AMC); below 1000 nM in test [1] (Table 3); above 10 µM in test [2]; above 10 µM in test [3]; 1 to 10 µM in test [4].
On to `N#C[C@@H]1CC(F)(F)CN1C(=O)CNC(=O)c1ccc(=O)[nH]c1-c1ccccc1` [compound 30], for which the inhibition at 1 µM in test [1] (setting [5]) is below 25%.
On to `N#C[C@@H]1CC(F)(F)CN1C(=O)CNC(=O)c1ccncc1-c1ccc2c(c1)CCN2` [Compound 104, (S)—N-(2-(2-cyano-4,4-difluoropyrrolidin-1-yl)-2-oxoethyl)-3-(indolin-5-yl)isonicotinamide], for which, in test [1] (setting [5]), the inhibition at 1 µM is above 50%. For the same compound, the half-inhibitory concentration (IC50) in test [1] (Table 2, Z-Gly-Pro-AMC) is below 1000 nM; in test [1] (Table 3), below 1000 nM; in test [2] it was above 10 µM; in test [3] it was above 10 µM; in test [4], above 10 µM.
Regarding `N#C[C@@H]1CC(F)(F)CN1C(=O)CNC(=O)c1ccn2nccc2c1` [Compound 85], in test [1] (setting [5]), the inhibition at 1 µM was above 50%.
For the compound `N#C[C@@H]1CC(F)(F)CN1C(=O)CNC(=O)c1c[nH]c(=O)cc1-c1ccnc2ccccc12` [Compound 116, (S)—N-(2-(2-cyano-4,4-difluoropyrrolidin-1-yl)-2-oxoethyl)-6-oxo-4-(quinolin-4-yl)-1,6-dihydropyridine-3-carboxamide], the inhibition at 1 µM in test [1] (setting [5]) was above 50%. In addition, the IC50 in test [1] (Table 2, Z-Gly-Pro-AMC) was below 1000 nM; in test [1] (Table 3), below 1000 nM; in test [2], above 10 µM; in test [3] it was 1 to 10 µM; in test [4], above 10 µM.
As to `N#Cc1ccc(C(=O)NCC(=O)N2CC(F)(F)C[C@H]2C#N)cc1` [Compound 17, (S)-4-cyano-N-(2-(2-cyano-4,4-difluoropyrrolidin-1-yl)-2-oxoethyl)benzamide], the inhibition at 1 µM in test [1] (setting [5]) was 25 to 50%.
For the compound `N#C[C@@H]1CC(F)(F)CN1C(=O)CCCNC(=O)c1c[nH]c(=O)c2ccccc12` [Compound 82, (S)—N-(4-(2-cyano-4,4-difluoropyrrolidin-1-yl)-4-oxobutyl)-1-oxo-1,2-dihydroisoquinoline-4-carboxamide], the inhibition at 1 µM in test [1] (setting [5]) is below 25%.
For the compound `N#C[C@@H]1CC(F)(F)CN1C(=O)C1(NC(=O)c2c[nH]c(=O)c3ccccc23)CC1` [Compound 23, (S)—N-(1-(2-cyano-4,4-difluoropyrrolidine-1-carbonyl)cyclopropyl)-1-oxo-1,2-dihydroisoquinoline-4-carboxamide], in test [1] (setting [5]), the inhibition at 1 µM was below 25%.
Turning to `N#C[C@@H]1CC(F)(F)CN1C(=O)CNC(=O)c1coc(=O)c2ccccc12` [Compound 22, (S)—N-(2-(2-cyano-4,4-difluoropyrrolidin-1-yl)-2-oxoethyl)-1-oxo-1H-isochromene-4-carboxamide], the inhibition at 1 µM in test [1] (setting [5]) is above 50%. The IC50 is below 1000 nM in test [1] (Table 2, Z-Gly-Pro-AMC); below 1000 nM in test [1] (Table 3); above 10 µM in test [3]; 1 to 10 µM in test [4].
Regarding `COc1ccc(C(=O)NCC(=O)N2CC(F)(F)C[C@H]2C#N)c(-c2ccccc2)n1` [Compound 86, (S)—N-(2-(2-cyano-4,4-difluoropyrrolidin-1-yl)-2-oxoethyl)-6-methoxy-2-phenylnicotinamide], the inhibition at 1 µM in test [1] (setting [5]) fell in the range of 25 to 50%.
In the case of `CC(NC(=O)c1c[nH]c(=O)c2ccccc12)C(=O)N1CC(F)(F)C[C@H]1C#N` (stereo partly drawn) [Compound 25, N-(1-((S)-2-cyano-4,4-difluoropyrrolidin-1-yl)-1-oxopropan-2-yl)-1-oxo-1,2-dihydroisoquinoline-4-carboxamide], the inhibition at 1 µM in test [1] was below 25%.
As to `N#C[C@@H]1CC(F)(F)CN1C(=O)C1CC(NC(=O)c2c[nH]c(=O)c3ccccc23)C1` (stereo partly shown) [Compound 101], the inhibition at 1 µM in test [1] (setting [5]) was below 25%.
Take `N#C[C@@H]1CC(F)(F)CN1C(=O)CNC(=O)c1cc2ccncc2o1` [Compound 84]: the inhibition at 1 µM in test [1] (setting [5]) was in the range of 25 to 50%.
With `CCN1C(=O)CC[C@@H](C(=O)NCC(=O)N2CC(F)(F)C[C@H]2C#N)[C@@H]1c1ccccc1` [Compound 20, (2R,3R)—N-(2-((S)-2-cyano-4,4-difluoropyrrolidin-1-yl)-2-oxoethyl)-1-ethyl-6-oxo-2-phenylpiperidine-3-carboxamide], the inhibition at 1 µM in test [1] (setting [5]) was in the range of 25 to 50%.
Consider `Cn1nc(C(=O)NCC(=O)N2CC(F)(F)C[C@H]2C#N)c2ccccc2c1=O` [Compound 81], for which the inhibition at 1 µM in test [1] (setting [5]) was below 25%.
Regarding `N#C[C@@H]1CC(F)(F)CN1C(=O)CNC(=O)c1ccncc1/C=C/c1ccccc1` [Compound 124, (S,E)-N-(2-(2-cyano-4,4-difluoropyrrolidin-1-yl)-2-oxoethyl)-3-styrylisonicotinamide], the inhibition at 1 µM in test [1] (setting [5]) is above 50%. Further, the IC50 was below 1000 nM in test [1] (Table 2, Z-Gly-Pro-AMC); below 1000 nM in test [1] (Table 3); 1 to 10 µM in test [2].
Take `N#C[C@@H]1CC(F)(F)CN1C(=O)CNC(=O)C1=NNC(=O)C2C=CC=CC12` (stereo partly shown) [Compound 80]: the inhibition at 1 µM in test [1] (setting [5]) is above 50%. Further, the 50% inhibitory concentration (IC50) in test [1] (Table 2, Z-Gly-Pro-AMC) was below 1000 nM; in test [1] (Table 3), below 1000 nM; in test [3], above 10 µM.
`N#C[C@H]1CC(F)(F)CN1C(=O)CNC(=O)c1ccncc1C1CC1` [compound 37]: the inhibition at 1 µM in test [1] is above 50%.
As to `N#C[C@@H]1CC(F)(F)CN1C(=O)CNC(=O)c1ccncc1CCc1ccccc1` [Compound 125, (S)—N-(2-(2-cyano-4,4-difluoropyrrolidin-1-yl)-2-oxoethyl)-3-phenethylisonicotinamide], the inhibition at 1 µM in test [1] (setting [5]) is above 50%. Further, the 50% inhibitory concentration (IC50) was below 1000 nM in test [1] (Table 2, Z-Gly-Pro-AMC); below 1000 nM in test [1] (Table 3); 1 to 10 µM in test [2].
Consider `N#Cc1ccc(C(=O)NCC(=O)N2CC(F)(F)C[C@H]2C#N)cc1F` [Compound 15, (S)-4-cyano-N-(2-(2-cyano-4,4-difluoropyrrolidin-1-yl)-2-oxoethyl)-3-fluorobenzamide], for which the inhibition at 1 µM in test [1] (setting [5]) fell in the range of 25 to 50%.
For the compound `N#C[C@@H]1CC(F)(F)CN1C(=O)CNC(=O)c1ccc2[nH]ncc2c1` [Compound 83], the inhibition at 1 µM in test [1] (setting [5]) was in the range of 25 to 50%.
`COc1cnccc1C(=O)NCC(=O)N1CC(F)(F)C[C@H]1C#N` [Compound 36]: the inhibition at 1 µM in test [1] (setting [5]) was above 50%. The IC50 is below 1000 nM in test [1] (Table 2, Z-Gly-Pro-AMC); below 1000 nM in test [1] (Table 3); above 10 µM in test [3].
Take `N#Cc1ccc(C(=O)NCC(=O)N2CC(F)(F)C[C@H]2C#N)c(C(F)(F)F)c1` [Compound 18, (S)-4-cyano-N-(2-(2-cyano-4,4-difluoropyrrolidin-1-yl)-2-oxoethyl)-2-(trifluoromethyl)benzamide]: in test [1] (setting [5]), the inhibition at 1 µM lay within 25 to 50%.
On to `N#C[C@@H]1CC(F)(F)CN1C(=O)CNC(=O)c1ccc2nccc(-c3ccccc3)c2c1` [Compound 19, (S)—N-(2-(2-cyano-4,4-difluoropyrrolidin-1-yl)-2-oxoethyl)-4-phenylquinoline-6-carboxamide], for which the inhibition at 1 µM in test [1] (setting [5]) is above 50%. Also, the IC50 was below 1000 nM in test [1] (Table 2, Z-Gly-Pro-AMC); below 1000 nM in test [1] (Table 3); above 10 µM in test [3]; above 10 µM in test [4].
